ChEMBL document CHEMBL4811298, “Discovery of novel class of histone deacetylase inhibitors as potential anticancer agents” (Bioorg Med Chem, 2021)
Activity calls are given as the source filed them. The calls are words filed in the database; no cut-off is given here.

How the values were obtained:
MCF7 [1] = assay: Induction of apoptosis in human MCF7 cells assessed as reduction in Bcl3 gene expression at 3 uM incubated for 24 hrs by whole transcriptome analysis; type: functional, cell-based
MCF7 [2] = assay: Upregulation of SIRT4 gene expression in human MCF7 cells at 3 uM incubated for 24 hrs by whole transcriptome analysis; type: functional, cell-based
MCF7 [3] = assay: Upregulation of NFkB2 gene expression in human MCF7 cells at 3 uM incubated for 24 hrs by whole transcriptome analysis; type: functional, cell-based
MCF7 [4] = assay: Induction of cell cycle arrest in human MCF7 cells assessed as accumulation at G1/S phase at 1 uM incubated for 4 hrs by PI staining based flow cytometric analysis; type: functional
MCF7 [5] = assay: Induction of apoptosis in human MCF7 cells assessed as increase in caspase 3/7 activity at 1 to 3 uM measured after 48 hrs by ELISA; type: functional, cell-based; details: dose 1-3 µM
MCF7 [6] = assay: Induction of cell cycle arrest in human MCF7 cells assessed as accumulation at G2/M phase at 1 uM incubated for 24 hrs by PI staining based flow cytometric analysis; type: functional
MCF7 [7] = assay: Upregulation of SIRT2 gene expression in human MCF7 cells at 3 uM incubated for 24 hrs by whole transcriptome analysis; type: functional, cell-based
MCF7 [8] = assay: Induction of apoptosis in human MCF7 cells assessed as downregulation of c-Myc gene expression at 1 uM measured after 24 hrs whole transcriptome analysis; type: functional, cell-based
MCF7 [9] = assay: Induction of apoptosis in human MCF7 cells assessed as downregulation of c-Myc protein expression at 1 to 3 uM measured after 48 hrs western blot analysis; type: functional, cell-based; details: dose 1-3 µM
MCF7 [10] = assay: Induction of cell cycle arrest in human MCF7 cells assessed downregulation of CDK6 gene expression at 3 uM incubated for 24 hrs by whole transcriptome analysis; type: functional, cell-based
MCF7 [11] = assay: Induction of cell cycle arrest in human MCF7 cells assessed downregulation of E2F1 gene expression at 3 uM incubated for 24 hrs by whole transcriptome analysis; type: functional, cell-based
MCF7 [12] = assay: Induction of cell cycle arrest in human MCF7 cells assessed as accumulation at subG1 phase at 1 uM incubated for 24 to 72 hrs by PI staining based flow cytometric analysis; type: functional; details: time 24-72 hrs
MCF7 [13] = assay: Induction of cell cycle arrest in human MCF7 cells assessed downregulation of RB1 gene expression at 3 uM incubated for 24 hrs by whole transcriptome analysis; type: functional, cell-based
A549 = assay: Antiproliferative activity against human A549 cells assessed as reduction in cell viability incubated for 48 hrs by SRB assay; type: functional, cell-based; details: A549, 48 h
MCF7 [14] = assay: Induction of cell cycle arrest in human MCF7 cells assessed downregulation of CDK1 gene expression at 3 uM incubated for 24 hrs by whole transcriptome analysis; type: functional, cell-based
Histone deacetylase 4 = Histone deacetylase 4 (Homo sapiens, UniProt P56524); assay: Inhibition of N-terminal GST-tagged/C-terminal His-tagged human recombinant HDAC4 (627 to 1084 residues) expressed in baculovirus-infected Sf9 cells assessed as reduction in 7-amino-4-methylcoumarin release measured every 5 mins by fluorescence based analysis
MCF7 [15] = assay: Downregulation of SIRT2 gene expression in human MCF7 cells at 3 uM incubated for 24 hrs by whole transcriptome analysis; type: functional, cell-based
Histone deacetylase 2 = Histone deacetylase 2 (Homo sapiens, UniProt Q92769); type: cell-based, Sf9
Chain of Histone deacetylase 2 (Q92769 whole entry): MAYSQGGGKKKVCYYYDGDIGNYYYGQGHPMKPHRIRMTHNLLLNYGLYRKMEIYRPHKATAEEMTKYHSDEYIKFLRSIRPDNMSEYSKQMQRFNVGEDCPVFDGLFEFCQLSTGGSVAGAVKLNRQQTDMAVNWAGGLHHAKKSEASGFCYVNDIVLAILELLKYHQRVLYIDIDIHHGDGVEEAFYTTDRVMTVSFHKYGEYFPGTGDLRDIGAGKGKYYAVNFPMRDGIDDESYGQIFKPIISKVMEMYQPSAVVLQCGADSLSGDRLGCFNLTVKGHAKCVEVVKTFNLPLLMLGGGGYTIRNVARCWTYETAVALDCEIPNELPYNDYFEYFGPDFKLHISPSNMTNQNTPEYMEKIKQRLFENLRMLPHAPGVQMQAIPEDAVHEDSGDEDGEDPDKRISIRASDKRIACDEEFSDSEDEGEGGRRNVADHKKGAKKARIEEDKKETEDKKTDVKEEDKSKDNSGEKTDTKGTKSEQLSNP

Histone deacetylase 5 [16] = target: T1, Histone deacetylase 5 (Homo sapiens, UniProt Q9UQL6); assay: Potency index, ratio of vorinostat IC50 to test compound IC50 for Inhibition of N-terminal GST-tagged human recombinant full length HDAC5 expressed in baculovirus-infected Sf9 cells assessed as reduction in 7-amino-4-methylcoumarin release measured every 5 mins by fluorescence based analysis
Histone deacetylase 5 [17] = target: T1, Histone deacetylase 5; assay: Inhibition of N-terminal GST-tagged human recombinant full length HDAC5 expressed in baculovirus-infected Sf9 cells assessed as reduction in 7-amino-4-methylcoumarin release measured every 5 mins by fluorescence based analysis
MCF7 [18] = assay: Induction of apoptosis in human MCF7 cells assessed as reduction in Bcl2 gene expression at 3 uM incubated for 24 hrs by whole transcriptome analysis; type: functional, cell-based
MCF7 [19] = assay: Antiproliferative activity against human MCF7 cells assessed as reduction in cell viability incubated for 48 hrs by SRB assay; type: functional, cell-based; details: MCF7, 48 h
MCF7 [20] = assay: Induction of cell cycle arrest in human MCF7 cells assessed downregulation of CDK4 gene expression at 3 uM incubated for 24 hrs by whole transcriptome analysis; type: functional, cell-based
Histone deacetylase 1 = Histone deacetylase 1 (Homo sapiens, UniProt Q13547); assay: (§1) Inhibition of C-terminal FLAG/His-tagged human recombinant HDAC1 (1 to 482 residues) expressed in baculovirus-infected Sf9 cells assessed as reduction in 7-amino-4-methylcoumarin release using fluorogenic HDAC substrate 3 measured every 5 mins by fluorescence based analysis
Chain of Histone deacetylase 1 (Q13547 whole entry, the tested form may be a part): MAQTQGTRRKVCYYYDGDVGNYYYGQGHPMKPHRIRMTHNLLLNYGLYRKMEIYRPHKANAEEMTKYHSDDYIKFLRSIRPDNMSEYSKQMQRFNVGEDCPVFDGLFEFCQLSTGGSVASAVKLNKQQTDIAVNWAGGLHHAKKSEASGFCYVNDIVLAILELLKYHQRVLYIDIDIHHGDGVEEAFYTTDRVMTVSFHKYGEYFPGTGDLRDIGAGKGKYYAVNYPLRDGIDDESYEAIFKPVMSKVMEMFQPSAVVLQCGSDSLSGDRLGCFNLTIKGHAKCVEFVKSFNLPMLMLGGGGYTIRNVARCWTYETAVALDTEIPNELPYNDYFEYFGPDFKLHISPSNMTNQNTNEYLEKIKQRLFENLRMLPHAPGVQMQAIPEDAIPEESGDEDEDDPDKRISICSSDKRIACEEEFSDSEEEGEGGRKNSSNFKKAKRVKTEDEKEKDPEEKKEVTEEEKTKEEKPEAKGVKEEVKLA

MCF7 [21] = assay: Downregulation of SIRT4 gene expression in human MCF7 cells at 3 uM incubated for 24 hrs by whole transcriptome analysis; type: functional, cell-based
Histone deacetylase 7 = target: T2, Histone deacetylase 7 (Homo sapiens, UniProt Q8WUI4); assay: Inhibition of N-terminal GST-tagged human HDAC7 (518 to end residues) expressed in baculovirus-infected Sf9 cells assessed as reduction in 7-amino-4-methylcoumarin release measured every 5 mins by fluorescence based analysis
T2 sequence (Q8WUI4 whole entry): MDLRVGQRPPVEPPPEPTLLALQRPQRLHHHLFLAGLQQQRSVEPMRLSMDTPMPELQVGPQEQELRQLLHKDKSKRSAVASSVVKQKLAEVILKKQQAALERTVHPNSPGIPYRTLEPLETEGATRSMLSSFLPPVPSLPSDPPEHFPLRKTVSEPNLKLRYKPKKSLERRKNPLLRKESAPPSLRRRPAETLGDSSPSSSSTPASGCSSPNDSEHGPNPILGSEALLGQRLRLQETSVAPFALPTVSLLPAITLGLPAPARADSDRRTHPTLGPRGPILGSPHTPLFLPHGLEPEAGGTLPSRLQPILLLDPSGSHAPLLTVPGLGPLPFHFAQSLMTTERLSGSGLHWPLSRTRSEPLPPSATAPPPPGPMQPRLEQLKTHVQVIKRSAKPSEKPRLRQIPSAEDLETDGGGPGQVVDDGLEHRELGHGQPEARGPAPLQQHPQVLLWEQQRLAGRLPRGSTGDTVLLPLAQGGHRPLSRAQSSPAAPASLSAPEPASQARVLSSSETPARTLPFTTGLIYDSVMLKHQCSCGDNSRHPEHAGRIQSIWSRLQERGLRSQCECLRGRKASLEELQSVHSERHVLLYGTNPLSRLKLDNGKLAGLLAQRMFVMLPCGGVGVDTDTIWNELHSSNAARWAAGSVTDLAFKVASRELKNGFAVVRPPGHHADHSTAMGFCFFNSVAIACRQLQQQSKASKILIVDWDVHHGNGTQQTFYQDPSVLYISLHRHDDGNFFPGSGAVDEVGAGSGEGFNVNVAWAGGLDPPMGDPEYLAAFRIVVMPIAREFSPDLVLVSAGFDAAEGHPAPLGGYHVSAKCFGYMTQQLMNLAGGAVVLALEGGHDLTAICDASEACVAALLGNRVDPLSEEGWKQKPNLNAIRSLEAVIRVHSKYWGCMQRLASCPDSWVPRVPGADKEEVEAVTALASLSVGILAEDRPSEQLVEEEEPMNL

MCF7 [22] = assay: Downregulation of NFkB2 gene expression in human MCF7 cells at 3 uM incubated for 24 hrs by whole transcriptome analysis; type: functional, cell-based
MCF7 [23] = assay: Induction of cell cycle arrest in human MCF7 cells assessed downregulation of CDK2 gene expression at 3 uM incubated for 24 hrs by whole transcriptome analysis; type: functional, cell-based
[24] = target: Histone deacetylase 3/Nuclear receptor corepressor 2 (HDAC3/NCoR2) (Homo sapiens, UniProt O15379); assay: as §1, with “His-tagged” for “FLAG/His-tagged”, “full length HDAC3” for “HDAC1”, “428 residues)/N-terminal GST-tagged human recombinant NCOR2 (395 to 489” for “482”
Chain of Histone deacetylase 3/Nuclear receptor corepressor 2 (HDAC3/NCoR2) (O15379 whole entry, the tested form may be a part): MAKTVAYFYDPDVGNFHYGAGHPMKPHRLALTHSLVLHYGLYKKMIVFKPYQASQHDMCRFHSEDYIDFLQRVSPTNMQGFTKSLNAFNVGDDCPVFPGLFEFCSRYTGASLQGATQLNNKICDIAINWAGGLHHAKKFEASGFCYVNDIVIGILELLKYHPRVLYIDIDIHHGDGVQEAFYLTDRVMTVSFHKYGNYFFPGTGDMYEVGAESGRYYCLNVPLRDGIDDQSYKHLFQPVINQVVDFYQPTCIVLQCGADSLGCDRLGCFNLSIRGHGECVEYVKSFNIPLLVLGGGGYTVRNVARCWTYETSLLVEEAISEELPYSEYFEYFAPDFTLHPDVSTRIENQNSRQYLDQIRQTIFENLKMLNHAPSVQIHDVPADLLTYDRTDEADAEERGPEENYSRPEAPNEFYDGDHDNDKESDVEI
Chain of Histone deacetylase 3/Nuclear receptor corepressor 2 (HDAC3/NCoR2) (Q9Y618 whole entry, further chain, the tested form may be a part): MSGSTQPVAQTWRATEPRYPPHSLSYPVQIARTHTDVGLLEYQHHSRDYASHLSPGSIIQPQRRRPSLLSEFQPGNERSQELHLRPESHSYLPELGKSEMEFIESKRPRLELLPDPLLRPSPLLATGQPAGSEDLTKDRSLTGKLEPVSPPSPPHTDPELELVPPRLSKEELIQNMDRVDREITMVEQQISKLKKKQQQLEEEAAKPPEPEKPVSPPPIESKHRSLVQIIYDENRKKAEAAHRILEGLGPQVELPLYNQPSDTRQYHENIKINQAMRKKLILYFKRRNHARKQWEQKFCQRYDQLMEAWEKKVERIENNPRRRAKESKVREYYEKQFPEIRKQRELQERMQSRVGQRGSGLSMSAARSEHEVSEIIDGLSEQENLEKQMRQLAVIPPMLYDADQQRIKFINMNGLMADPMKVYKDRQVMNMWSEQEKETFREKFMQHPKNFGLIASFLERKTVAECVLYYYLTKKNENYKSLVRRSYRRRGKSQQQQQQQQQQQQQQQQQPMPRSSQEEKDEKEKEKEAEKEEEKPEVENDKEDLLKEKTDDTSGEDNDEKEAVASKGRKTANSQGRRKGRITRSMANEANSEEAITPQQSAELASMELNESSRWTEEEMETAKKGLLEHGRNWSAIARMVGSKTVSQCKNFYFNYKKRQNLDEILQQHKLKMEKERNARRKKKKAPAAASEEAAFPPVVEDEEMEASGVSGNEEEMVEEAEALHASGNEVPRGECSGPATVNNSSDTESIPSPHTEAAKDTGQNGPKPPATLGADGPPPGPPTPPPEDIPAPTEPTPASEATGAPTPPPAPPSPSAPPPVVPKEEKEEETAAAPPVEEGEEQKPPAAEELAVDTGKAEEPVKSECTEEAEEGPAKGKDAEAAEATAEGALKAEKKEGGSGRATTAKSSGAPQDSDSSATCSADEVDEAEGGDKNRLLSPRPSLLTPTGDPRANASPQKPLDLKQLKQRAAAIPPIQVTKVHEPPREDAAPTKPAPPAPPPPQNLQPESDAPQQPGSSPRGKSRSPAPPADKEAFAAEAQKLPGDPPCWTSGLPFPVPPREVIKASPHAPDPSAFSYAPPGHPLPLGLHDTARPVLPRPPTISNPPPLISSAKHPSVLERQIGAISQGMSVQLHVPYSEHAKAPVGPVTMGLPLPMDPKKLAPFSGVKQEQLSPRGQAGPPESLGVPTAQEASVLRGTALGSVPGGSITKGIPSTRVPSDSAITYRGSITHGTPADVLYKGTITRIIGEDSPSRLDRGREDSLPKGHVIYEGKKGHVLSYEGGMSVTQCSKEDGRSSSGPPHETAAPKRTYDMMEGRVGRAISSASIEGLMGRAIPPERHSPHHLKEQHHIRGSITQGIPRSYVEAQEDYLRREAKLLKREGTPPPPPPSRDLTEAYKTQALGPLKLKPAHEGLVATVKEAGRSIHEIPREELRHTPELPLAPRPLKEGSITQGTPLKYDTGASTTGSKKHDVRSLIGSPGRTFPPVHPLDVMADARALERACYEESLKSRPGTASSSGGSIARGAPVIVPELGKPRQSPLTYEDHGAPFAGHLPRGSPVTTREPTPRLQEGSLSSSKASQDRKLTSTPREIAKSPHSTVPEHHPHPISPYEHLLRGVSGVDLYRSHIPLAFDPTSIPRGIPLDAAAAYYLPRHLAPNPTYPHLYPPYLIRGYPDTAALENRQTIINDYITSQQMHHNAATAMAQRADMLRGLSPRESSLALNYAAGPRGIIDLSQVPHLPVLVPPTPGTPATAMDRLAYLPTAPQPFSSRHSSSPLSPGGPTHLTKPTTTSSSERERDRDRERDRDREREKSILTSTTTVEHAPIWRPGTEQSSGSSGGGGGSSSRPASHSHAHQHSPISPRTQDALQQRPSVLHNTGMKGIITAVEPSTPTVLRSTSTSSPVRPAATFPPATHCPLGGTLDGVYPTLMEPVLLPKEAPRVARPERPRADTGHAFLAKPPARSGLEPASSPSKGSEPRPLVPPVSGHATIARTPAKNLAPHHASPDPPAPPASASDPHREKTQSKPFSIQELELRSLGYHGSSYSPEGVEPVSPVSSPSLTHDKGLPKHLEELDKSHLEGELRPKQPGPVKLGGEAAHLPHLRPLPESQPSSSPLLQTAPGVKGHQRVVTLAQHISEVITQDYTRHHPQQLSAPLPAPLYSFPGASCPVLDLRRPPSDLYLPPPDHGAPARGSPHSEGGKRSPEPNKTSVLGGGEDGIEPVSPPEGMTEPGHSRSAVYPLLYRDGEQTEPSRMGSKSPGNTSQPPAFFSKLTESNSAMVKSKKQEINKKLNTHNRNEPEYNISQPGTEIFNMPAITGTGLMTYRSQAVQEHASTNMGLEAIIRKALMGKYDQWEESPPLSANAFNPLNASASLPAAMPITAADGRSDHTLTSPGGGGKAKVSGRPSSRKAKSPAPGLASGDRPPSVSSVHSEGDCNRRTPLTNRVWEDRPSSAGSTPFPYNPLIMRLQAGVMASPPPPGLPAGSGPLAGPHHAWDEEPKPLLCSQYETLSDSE

Histone deacetylase 9 = Histone deacetylase 9 (Homo sapiens, UniProt Q9UKV0); assay: Inhibition of C-terminal His-tagged human HDAC9 (604 to 1066 residues) expressed in baculovirus-infected Sf9 cells assessed as reduction in 7-amino-4-methylcoumarin release measured every 5 mins by fluorescence based analysis
Chain of Histone deacetylase 9 (Q9UKV0 whole entry, the tested form may be a part): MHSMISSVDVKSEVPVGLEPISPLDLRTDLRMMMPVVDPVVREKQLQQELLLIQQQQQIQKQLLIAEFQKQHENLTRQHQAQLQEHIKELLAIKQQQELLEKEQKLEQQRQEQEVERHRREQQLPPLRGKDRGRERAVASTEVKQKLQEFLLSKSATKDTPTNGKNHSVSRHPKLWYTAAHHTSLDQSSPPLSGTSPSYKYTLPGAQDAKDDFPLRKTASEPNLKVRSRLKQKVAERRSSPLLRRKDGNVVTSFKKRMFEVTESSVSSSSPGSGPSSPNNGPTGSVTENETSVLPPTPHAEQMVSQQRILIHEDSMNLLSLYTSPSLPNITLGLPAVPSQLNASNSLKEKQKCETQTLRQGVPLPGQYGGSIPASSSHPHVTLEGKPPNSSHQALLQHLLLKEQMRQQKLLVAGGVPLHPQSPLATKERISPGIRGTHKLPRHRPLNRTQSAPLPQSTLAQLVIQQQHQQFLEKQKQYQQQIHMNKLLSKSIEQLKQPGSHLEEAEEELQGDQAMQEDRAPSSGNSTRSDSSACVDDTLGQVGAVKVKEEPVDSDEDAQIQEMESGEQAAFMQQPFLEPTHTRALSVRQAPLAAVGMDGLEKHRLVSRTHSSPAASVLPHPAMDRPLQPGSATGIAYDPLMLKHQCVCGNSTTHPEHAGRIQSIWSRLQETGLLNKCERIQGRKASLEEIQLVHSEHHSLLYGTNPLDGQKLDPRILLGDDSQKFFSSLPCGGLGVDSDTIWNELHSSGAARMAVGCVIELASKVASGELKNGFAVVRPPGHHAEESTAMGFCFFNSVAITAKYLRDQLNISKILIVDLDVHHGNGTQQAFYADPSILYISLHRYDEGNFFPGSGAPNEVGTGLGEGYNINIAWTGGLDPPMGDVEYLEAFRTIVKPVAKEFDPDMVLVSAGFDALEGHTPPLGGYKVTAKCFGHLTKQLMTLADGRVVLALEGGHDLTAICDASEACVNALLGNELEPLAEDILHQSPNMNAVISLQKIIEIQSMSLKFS

MCF7 [25] = assay: Induction of cell cycle arrest in human MCF7 cells assessed as accumulation at G2/M phase at 1 uM incubated for 4 hrs by PI staining based flow cytometric analysis; type: functional
[26] = target: Histone deacetylase (Homo sapiens) (UniProt Q13547+O15379+Q9UBN7+Q92769+Q9UQL6+Q8WUI4+Q9BY41+Q96DB2+P56524+Q9UKV0+Q969S8); assay: Inhibition of HDAC in human MCF7 cells assessed as increase in acetylated histone H4 mRNA level at 3 uM incubated for 24 hrs by whole transcriptome analysis; type: cell-based

Compound | Activity (MCF7 [1]) | Activity (MCF7 [3]) | Activity (MCF7 [4]) | Activity (MCF7 [5]) | Activity (MCF7 [6]) | Activity (MCF7 [8]) | Activity (MCF7 [9]) | Activity (MCF7 [12]) | IC50 (A549) | IC50 (Histone deacetylase 4) | inhibition (MCF7 [15]) | IC50 (Histone deacetylase 2) | IC50 (Histone deacetylase 5 [17]) | Activity (MCF7 [18]) | IC50 (MCF7 [19]) | IC50 (Histone deacetylase 1) | inhibition (MCF7 [21]) | IC50 (Histone deacetylase 7) | IC50 [24] | IC50 (Histone deacetylase 9) | also measured
O=C(CCCCCCC(=O)Nc1ccccc1)NO | inactive | Active | Active | Active | Active | Active | Active |  |  |  |  |  |  |  |  |  |  |  |  |  | Activity (MCF7 [2]): Active; Activity (MCF7 [7]): Active
CC(C)(C)Nc1c(-c2cccc(-c3nc4cc(-c5noc(C(F)(F)F)n5)ccc4[nH]3)c2)nc2ccccn12 | Active |  | Active | Active |  | Active |  | inactive | > 10 µM | 1.65 µM | Active | > 10 µM | 0.31 µM | Active | > 10 µM | > 10 µM | Active | 4.85 µM | > 10 µM | 0.818 µM | Activity (MCF7 [10]): Active; Activity (MCF7 [11]): Active; Activity (MCF7 [13]): Active; Activity (MCF7 [14]): Active; Ratio IC50 (Histone deacetylase 5 [16]): > 33; Activity (MCF7 [20]): Active; inhibition (MCF7 [22]): Active; Activity (MCF7 [23]): Active
CC(C)(C)Nc1c(-c2ccc(-c3noc(C(F)(F)F)n3)cc2)nc2ccccn12 | Active |  |  | Active | Active |  |  | Active | > 10 µM | 3.58 µM | Active | > 10 µM | 0.812 µM | Active | > 10 µM | > 10 µM | Active | 6.9 µM | > 10 µM | 2.31 µM | Activity (MCF7 [10]): Active; Activity (MCF7 [11]): Active; Activity (MCF7 [13]): Active; Activity (MCF7 [25]): Active; Activity (MCF7 [14]): Active; Activity (MCF7 [20]): Active; inhibition (MCF7 [22]): Active; Activity (MCF7 [23]): Active
CC(C)(C)Nc1c(-c2cccc(C(=O)Nc3ccc(F)cc3N)c2)nc2ccccn12 | Active | Active |  | Active | Active | Active | Active | Active | > 10 µM | > 10 µM | Active | > 10 µM | 12.4 µM | Active | 0.7 µM | > 10 µM | Active | 6.1 µM | 2.12 µM | 1.3 µM | inhibition [26]: Active; Activity (MCF7 [25]): Active
